The source made the active and inactive calls. No cut-off for these calls is given here.
Columns and labels:
Plasma [1] = assay: Drug uptake in SCID mouse plasma at 50 mg/kg administered through gastric gavage; format: ADME, organism-based; conditions: in vivo, po
LNCaP [2] = assay: Antitumor activity against human LNCAP cells xenografted in sc dosed SCID mouse assessed as tumor growth inhibition administered in trappsol for five times per week up to two weeks measured twice per week; format: functional, organism-based
SF-268 = assay: Cytotoxicity against human SF268 cells assessed as inhibition of cell proliferation/survival after 72 hrs by resazurin dye reduction assay; format: functional, cell-based; conditions: SF-268, 72 h
Plasma [3] = assay: Drug uptake in SCID mouse plasma at 50 mg/kg, ip; format: ADME, organism-based; conditions: in vivo
LNCaP [4] = assay: Cytotoxicity against human LNCAP cells assessed as inhibition of cell proliferation/survival after 72 hrs by resazurin dye reduction assay; format: functional, cell-based
[5] = Toxicity in sc dosed SCID mouse administered in trappsol once per day for 5 days followed by 2 days of rest and again dose repetition; format: organism-based; conditions: in vivo
Serum = assay: Drug uptake in SCID mouse serum at 25 mg/kg, sc administered in trappsol measured after 1 hr; format: ADME, organism-based; conditions: in vivo
PC-3 [6] = assay: Cytotoxicity against human PC3 cells assessed as inhibition of cell proliferation/survival after 72 hrs by resazurin dye reduction assay; format: functional, cell-based; conditions: PC-3, 72 h
Mus musculus [7] = assay: Toxicity in SCID mouse xenografted with human PC3 cells assessed as mortality at 26 to 40 mg/kg, ip for five times per week up to two weeks; format: organism-based, PC-3; conditions: in vivo
Mus musculus [8] = assay: Toxicity in SCID mouse xenografted with human LNCAP cells assessed as mortality at 15 to 25 mg/kg, sc administered in trappsol for five times per week up to two weeks; format: organism-based; conditions: in vivo
HFF = assay: Cytotoxicity against HFF assessed as inhibition of cell proliferation/survival after 72 hrs by resazurin dye reduction assay; format: cell-based; conditions: Homo sapiens
[9] = Tmax in SCID mouse at 50 mg/kg, ip; format: ADME, organism-based; conditions: in vivo
PC-3 [10] = assay: Antitumor activity against human PC3 cells xenografted in ip dosed SCID mouse assessed as tumor growth inhibition for five times per week up to two weeks measured twice per week; format: functional, organism-based
MCF7 = assay: Cytotoxicity against human MCF7 cells assessed as inhibition of cell proliferation/survival after 72 hrs by resazurin dye reduction assay; format: functional, cell-based; conditions: MCF7, 72 h
PC-3 [11] = assay: Antitumor activity against human PC3 cells xenografted in SCID mouse assessed as tumor growth inhibition at 26 to 40 mg/kg, ip coadministered with taxotere for five times per week up to two weeks measured twice per week; format: functional, organism-based
NCI-H460 = assay: Cytotoxicity against human NCI-H460 cells assessed as inhibition of cell proliferation/survival after 72 hrs by resazurin dye reduction assay; format: functional, cell-based; conditions: NCI-H460, 72 h
LNCaP [12] = assay: Antitumor activity against human LNCAP cells xenografted in SCID mouse assessed as tumor growth inhibition at 15 to 25 mg/kg, sc coadministered with taxotere in trappsol for five times per week up to two weeks measured twice per week; format: functional, organism-based
Androgen receptor [13] = molecular target: T1, Androgen receptor (Homo sapiens, UniProt P10275); assay: Inhibition of androgen receptor in human LNCAP cells assessed as inhibition of DHT-induced SPDEF gene expression by Array Plate assay; format: cell-based
T1 sequence (P10275 whole entry): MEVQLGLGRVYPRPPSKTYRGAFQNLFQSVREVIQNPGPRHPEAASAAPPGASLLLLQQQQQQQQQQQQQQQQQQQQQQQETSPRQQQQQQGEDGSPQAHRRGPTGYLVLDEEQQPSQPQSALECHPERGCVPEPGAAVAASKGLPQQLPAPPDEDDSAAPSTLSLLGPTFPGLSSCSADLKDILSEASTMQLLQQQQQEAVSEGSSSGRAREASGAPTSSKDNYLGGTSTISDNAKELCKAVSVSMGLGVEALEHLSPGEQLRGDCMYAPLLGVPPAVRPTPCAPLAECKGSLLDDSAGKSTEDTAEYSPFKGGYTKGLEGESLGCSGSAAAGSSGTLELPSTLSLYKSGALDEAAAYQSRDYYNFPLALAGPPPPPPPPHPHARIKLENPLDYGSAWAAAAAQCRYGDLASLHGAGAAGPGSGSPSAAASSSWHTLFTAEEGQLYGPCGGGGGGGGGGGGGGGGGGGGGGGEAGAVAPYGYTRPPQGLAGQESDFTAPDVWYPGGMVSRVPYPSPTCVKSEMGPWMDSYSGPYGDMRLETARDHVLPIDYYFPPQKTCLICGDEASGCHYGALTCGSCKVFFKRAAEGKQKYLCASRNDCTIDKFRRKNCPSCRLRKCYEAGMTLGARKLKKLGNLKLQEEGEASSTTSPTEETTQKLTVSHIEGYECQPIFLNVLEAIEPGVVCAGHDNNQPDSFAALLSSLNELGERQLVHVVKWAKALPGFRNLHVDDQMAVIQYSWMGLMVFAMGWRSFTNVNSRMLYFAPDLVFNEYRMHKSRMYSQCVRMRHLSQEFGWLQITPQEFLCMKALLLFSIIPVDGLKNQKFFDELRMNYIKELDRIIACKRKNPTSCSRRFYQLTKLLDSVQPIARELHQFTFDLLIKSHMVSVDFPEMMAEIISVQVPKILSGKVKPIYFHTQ

PC-3 [14] = assay: Antitumor activity against human PC3 cells xenografted in SCID mouse assessed as tumor growth inhibition at 50 mg/kg, ip qd administered for 5 days followed by 2 days rest and again dose repetition up to 30 days measured after day 30 post dose relative to vehicle-treated control; format: functional; conditions: PC-3, ip, read-out: TGI
[15] = Toxicity in SCID mouse assessed as change in body weight measured every 3 to 5 days up to 18 days; format: organism-based; conditions: in vivo
Androgen receptor [16] = molecular target: T1, Androgen receptor; assay: Inhibition of androgen receptor in human LNCAP cells assessed as inhibition of DHT-induced KLK3 gene expression by Array Plate assay; format: cell-based
Androgen receptor [17] = molecular target: T1, Androgen receptor; assay: Inhibition of androgen receptor in human LNCAP cells assessed as inhibition of DHT-induced KLK2 gene expression by Array Plate assay; format: cell-based
[18] = molecular target: T2, Androgen receptor (Homo sapiens) (UniProt P10275); assay: Competitive inhibition of androgen binding to androgen receptor (unknown origin) by invitrogen polar screen assay
T2 sequence (whole entry): T1 sequence (P10275 whole entry)

PC-3 [19] = assay: Antitumor activity against human PC3 cells xenografted in SCID mouse assessed as tumor growth inhibition at 12 mg/kg, iv administered for five times per week up to two weeks measured twice per week; format: functional, organism-based

SMILES | IC50 (SF-268) | IC50 (LNCaP [4]) | IC50 (PC-3 [6]) | IC50 (HFF) | IC50 (MCF7) | IC50 (NCI-H460) | IC50 (Androgen receptor [13]) | IC50 (Androgen receptor [16]) | IC50 (Androgen receptor [17]) | also measured
CC(=O)OC[C@]12CC[C@H]3[C@@H](C[C@H]4O[C@]45CC=CC(=O)[C@]35C)[C@]1(O)CC[C@@]2(O)[C@@](C)(O)[C@H]1CC(C)=C(C)C(=O)O1 | 2.6 µM | 0.02 µM | 0.09 µM | > 3.1 µM | 0.21 µM | 0.8 µM | – | – | – | Drug uptake (Plasma [1]): Not Active; TGI (LNCaP [2]): Dose-dependent effect; Drug uptake (Plasma [3]): Active; MTD [5]: 25 mg/kg; Drug uptake (Serum): Active; Activity (Mus musculus [7]): Non-toxic; Activity (Mus musculus [8]): Non-toxic; Tmax [9]: 15 min; TGI (PC-3 [10]): Dose-dependent effect; TGI (PC-3 [11]): Active; TGI (LNCaP [12]): Active
CC1=C(CO)C(=O)O[C@@H]([C@@H](C)[C@H]2CC[C@H]3[C@@H]4C[C@H]5O[C@]56[C@@H](O)C=CC(=O)[C@]6(C)[C@H]4CC[C@]23C)C1 [WITHAFERIN A] | < 0.4 µM | 0.87 µM | 0.41 µM | > 6.8 µM | 0.57 µM | < 0.4 µM | – | – | – | –
CC(=O)OC[C@]12CC[C@H]3[C@@H](CC=C4CC=CC(=O)[C@@]43C)[C@]1(O)[C@@H](OC(C)=O)C[C@@]2(O)[C@@](C)(O)[C@H]1CC(CO)=C(C)C(=O)O1 | > 5 µM | 3.3 µM | > 5 µM | – | > 5 µM | > 5 µM | – | – | – | –
CC(=O)OC[C@]12CC[C@H]3[C@@H](C[C@@H]4O[C@@]45CC=CC(=O)[C@]35C)[C@]1(O)CC[C@@]2(O)[C@@](C)(O)[C@H]1CC(C)=C(C)C(=O)O1 | > 5 µM | 0.32 µM | 1.2 µM | > 12 µM | 1.2 µM | 2.1 µM | – | – | – | –
CC(=O)OC[C@]12CC[C@H]3[C@@H](CC=C4CC=CC(=O)[C@@]43C)[C@]1(O)CC[C@@]2(O)[C@@](C)(O)[C@H]1CC(C)=C(C)C(=O)O1 | 3.4 µM | 0.07 µM | 0.13 µM | > 3.1 µM | 1.9 µM | 1.2 µM | 0.77 µM | 0.75 µM | 0.58 µM | inhibition in vivo at 50 mg/kg (PC-3 [14]): 66%; MTD at 18 days [15]: 50 mg/kg; inhibition [18]: inactive
COc1cccc2c1C(=O)c1c(O)c3c(c(O)c1C2=O)C[C@@](O)(C(=O)CO)C[C@@H]3O[C@H]1C[C@H](N)[C@H](O)[C@H](C)O1 [DOXORUBICIN] | 0.45 µM | – | 0.25 µM | – | 0.32 µM | – | – | – | – | –
CC(=O)OC[C@]12CC[C@H]3[C@@H](CC=C4C=CCC(=O)[C@@]43C)[C@]1(O)[C@@H](OC(C)=O)C[C@@]2(O)[C@@](C)(O)[C@H]1CC(C)=C(C)C(=O)O1 | > 5 µM | 2 µM | > 5 µM | > 5 µM | > 5 µM | > 5 µM | 1.2 µM | 1.42 µM | 0.62 µM | –
CC(=O)OC[C@]12CC[C@H]3[C@@H](CC=C4C=CCC(=O)[C@@]43C)[C@]1(O)CC[C@@]2(O)[C@@](C)(O)[C@H]1CC(C)=C(C)C(=O)O1 | > 5 µM | 1.1 µM | 3.1 µM | > 3.1 µM | > 5 µM | 3.9 µM | 3.28 µM | 3.52 µM | 2.4 µM | –
CC(=O)OC[C@]12CC[C@H]3[C@@H](CC=C4CC=CC(=O)[C@@]43C)[C@]1(O)[C@@H](OC(C)=O)C[C@@]2(O)[C@@](C)(O)[C@H]1CC(C)=C(C)C(=O)O1 | > 5 µM | 0.44 µM | 2 µM | > 2.8 µM | > 5 µM | 2 µM | 2.72 µM | 3.58 µM | 1.79 µM | –
CC(=O)O[C@@]12CO[C@@H]1C[C@H](O)[C@@]1(C)C(=O)[C@H](O)C3=C(C)[C@@H](OC(=O)[C@H](O)[C@@H](NC(=O)OC(C)(C)C)c4ccccc4)C[C@@](O)([C@@H](OC(=O)c4ccccc4)[C@H]21)C3(C)C | – | – | – | – | – | – | – | – | – | TGI (PC-3 [19]): Active

Reference: ChEMBL document CHEMBL3603831, “Discovery of Potent 17β-Hydroxywithanolides for Castration-Resistant Prostate Cancer by High-Throughput Screening of a Natural Products Library for Androgen-Induced Gene Expression Inhibitors” (J Med Chem, 2015)
